Target: T1, human thyroid receptor beta ligand-binding domain (LBD) (Homo sapiens, UniProt P10828)
T1 construct: Thyroid receptor beta LBD was added to the plate at a final concentration of 1 nM; purchased Invitrogen
T1 sequence (P10828 217-461 limits assumed): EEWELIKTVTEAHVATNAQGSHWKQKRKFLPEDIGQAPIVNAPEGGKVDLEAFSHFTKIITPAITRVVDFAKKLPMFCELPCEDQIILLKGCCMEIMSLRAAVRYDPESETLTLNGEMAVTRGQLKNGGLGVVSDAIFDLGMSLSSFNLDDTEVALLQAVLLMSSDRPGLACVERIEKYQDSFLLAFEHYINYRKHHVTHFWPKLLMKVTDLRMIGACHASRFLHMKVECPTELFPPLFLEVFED
Assay: THR Biochemical Assay (Assay 1): TR-FRET thyroid receptor beta coactivator assay
Settings: GST-tagged thyroid receptor beta LBD 1 nM, fluorescein SRC2-2 coactivator peptide 200 nM, 1 hr at rt, TR-FRET ratio 520:495; read-out: Assay 1 (EC50, THR-beta agonist)
Text: THR Biochemical Assay (Assay 1)
The TR-FRET thyroid receptor beta coactivator assay was used with slight, optimized modifications of the manufacturer's protocol (Invitrogen). The assay uses a terbium-labeled anti-GST antibody, a glutathione-S-transferase (GST) tagged human thyroid receptor, beta or alpha, ligand-binding domain (LBD), and a fluorescein labeled SRC2-2 coactivator peptide. The antibody interacts with the LBD, where the agonist also binds, resulting in increased affinity for the SRC2-2 coactivator peptide causing energy transfer […] the acceptor fluorophore and a FRET emission shift from 495 to 520 nm. The energy transfer was detected as an increase in the fluorescence emission of the fluorescein acceptor, and a decrease in the fluorescence emission of the terbium donor. The assay was performed in a 384-well black plate in a final volume of 20 μL. Serial dilution of various test agonists was performed in DMSO (1% final DMSO concentration) and added to the test plate. Thyroid receptor beta LBD was added to the plate at a final concentration of 1 nM, followed by the mixture of the fluorescein labeled SRC2-2 coactivator peptide, and the terbium-labeled anti-GST antibody at final concentrations of 200 nM and 2 nM respectively. The assay was incubated for 1 hr at rt protected from light. The TR-FRET was then measured on a Victor multilabel reader (Perkin Elmer) using an excitation wavelength of 340 nm with emission filters of 495 nm and 520 nm. The assay was quantified by expressing a ratio (520:495) of the intensities, and the resulting activation curves; EC50 values were generated using a sigmoidal dose response (variable slope) equation in GraphPad™ Prism 8.0.

| SMILES | EC50 |
| --- | --- |
| Nc1nn(-c2cc(Cl)c(Oc3ccc4c(c3)C3(CC(F)(F)C3)C(=O)N4)c(Cl)c2)c(=O)[nH]c1=O [Compound 11, 6-amino-2-(3,5-dichloro-4-((3,3-difluoro-2′-oxospiro[cyclobutane-1,3′-indolin]-5′-yl)oxy)phenyl)-1,2,4-triazine-3,5(2H,4H)-dione] | 50 to 250 nM |
| Cc1cc(-n2nc(N)c(=O)[nH]c2=O)cc(C)c1Cc1ccc2c(n1)C(C)(C)C(=O)N2 [Compound 12, 6-amino-2-[4-({3,3-dimethyl-2-oxo-1H-pyrrolo[3,2-b]pyridin-5-yl}methyl)-3,5-dimethylphenyl]-4H-1,2,4-triazine-3,5-dione] | 50 to 250 nM |
| O=C(O)C(=O)Nc1cc(Cl)c(Oc2ccc3c(c2)C2(CCC2)C(=O)N3)c(Cl)c1 [Compound 13, 2-((3,5-dichloro-4-((2′-oxospiro[cyclobutane-1,3′-indolin]-5′-yl)oxy)phenyl)amino)-2-oxoacetic acid] | < 50 nM |
| O=C(Nc1cc(Cl)c(Oc2ccc3c(c2)C2(CCC2)C(=O)N3)c(Cl)c1)c1noc(=O)[nH]1 [Compound 14, N-(3,5-dichloro-4-((2′-oxospiro[cyclobutane-1,3′-indolin]-5′-yl)oxy)phenyl)-5-oxo-4,5-dihydro-1,2,4-oxadiazole-3-carboxamide] | < 50 nM |
| O=C1Nc2ccc(Oc3c(Cl)cc(-c4n[nH]c(=O)[nH]c4=O)cc3Cl)cc2C12CCC2 [Compound 15, 6-(3,5-dichloro-4-((2′-oxospiro[cyclobutane-1,3′-indolin]-5′-yl)oxy)phenyl)-1,2,4-triazine-3,5(2H,4H)-dione] | < 50 nM |
| Cn1nc(-c2cc(Cl)c(Oc3ccc4c(c3)C3(CCC3)C(=O)N4)c(Cl)c2)c(=O)[nH]c1=O [Compound 16, 6-(3,5-dichloro-4-((2′-oxospiro[cyclobutane-1,3′-indolin]-5′-yl)oxy)phenyl)-2-methyl-1,2,4-triazine-3,5(2H,4H)-dione] | < 50 nM |
| Nc1nn(-c2cc(Cl)c(Oc3ccc4c(c3F)C3(CCC3)C(=O)N4)c(Cl)c2)c(=O)[nH]c1=O [Compound 17, 6-amino-2-(3,5-dichloro-4-((4′-fluoro-2′-oxospiro[cyclobutane-1,3′-indolin]-5′-yl)oxy)phenyl)-1,2,4-triazine-3,5(2H,4H)-dione] | < 50 nM |
| Cc1c(Oc2c(Cl)cc(-n3nc(N)c(=O)[nH]c3=O)cc2Cl)ccc2c1C1(CCC1)C(=O)N2 [Compound 18, 6-amino-2-(3,5-dichloro-4-((4′-methyl-2′-oxospiro[cyclobutane-1,3′-indolin]-5′-yl)oxy)phenyl)-1,2,4-triazine-3,5(2H,4H)-dione] | < 50 nM |
| Cc1cc2c(cc1Oc1c(Cl)cc(-n3nc(N)c(=O)[nH]c3=O)cc1Cl)C1(CCC1)C(=O)N2 [Compound 19, 6-amino-2-(3,5-dichloro-4-((6′-methyl-2′-oxospiro[cyclobutane-1,3′-indolin]-5′-yl)oxy)phenyl)-1,2,4-triazine-3,5(2H,4H)-dione] | > 25000 nM |
| Cc1cc(OCC(=O)O)c(C)c(C)c1Cc1ccc2c(c1)C1(CC1)C(=O)N2 [Compound 20, 2-(2,3,5-trimethyl-4-((2′-oxospiro[cyclopropane-1,3′-indolin]-5′-yl)methyl)phenoxy)acetic acid] | < 50 nM |
| Nc1nn(-c2cc(Cl)c(Oc3cc(F)c4c(c3)C3(CCC3)C(=O)N4)c(Cl)c2)c(=O)[nH]c1=O [Compound 21, 6-amino-2-(3,5-dichloro-4-((7′-fluoro-2′-oxospiro[cyclobutane-1,3′-indolin]-5′-yl)oxy)phenyl)-1,2,4-triazine-3,5(2H,4H)-dione] | < 50 nM |
| O=C(Nc1cc(Cl)c(Oc2ccc3c(c2)C2(CC2)C(=O)N3)c(Cl)c1)c1noc(=O)[nH]1 [Compound 22, N-(3,5-dichloro-4-((2′-oxospiro[cyclopropane-1,3′-indolin]-5′-yl)oxy)phenyl)-5-oxo-4,5-dihydro-1,2,4-oxadiazole-3-carboxamide] | < 50 nM |
| Cc1c(Oc2c(Cl)cc(NC(=O)c3noc(=O)[nH]3)cc2Cl)ccc2c1C1(CC1)C(=O)N2 [Compound 23, N-(3,5-dichloro-4-((4′-methyl-2′-oxospiro[cyclopropane-1,3′-indolin]-5′-yl)oxy)phenyl)-5-oxo-4,5-dihydro-1,2,4-oxadiazole-3-carboxamide] | < 50 nM |
| Cc1cc(-n2nc(N)c(=O)[nH]c2=O)cc(C)c1Oc1ccc2c(c1)C1(CCC1)C(=O)N2 [Compound 24, 6-amino-2-(3,5-dimethyl-4-((2′-oxospiro[cyclobutane-1,3′-indolin]-5′-yl)oxy)phenyl)-1,2,4-triazine-3,5(2H,4H)-dione] | < 50 nM |
| Cc1cc(NC(=O)c2noc(=O)[nH]2)cc(C)c1Oc1ccc2c(c1)C1(CCC1)C(=O)N2 [Compound 25, N-(3,5-dimethyl-4-((2′-oxospiro[cyclobutane-1,3′-indolin]-5′-yl)oxy)phenyl)-5-oxo-4,5-dihydro-1,2,4-oxadiazole-3-carboxamide] | < 50 nM |
| CN1C(=O)C2(CC2)c2cc(Oc3c(Cl)cc(-n4nc(N)c(=O)[nH]c4=O)cc3Cl)ccc21 [Compound 26, 6-amino-2-(3,5-dichloro-4-((1′-methyl-2′-oxospiro[cyclopropane-1,3′-indolin]-5′-yl)oxy)phenyl)-1,2,4-triazine-3,5(2H,4H)-dione] | > 25000 nM |
| Cc1cc(Oc2c(Cl)cc(-n3nc(N)c(=O)[nH]c3=O)cc2Cl)cc2c1NC(=O)C21CCC1 [Compound 27, 6-amino-2-(3,5-dichloro-4-((7′-methyl-2′-oxospiro[cyclobutane-1,3′-indolin]-5′-yl)oxy)phenyl)-1,2,4-triazine-3,5(2H,4H)-dione] | < 50 nM |
| Cc1cc(-n2nc(N)c(=O)[nH]c2=O)cc(C)c1Oc1ccc2c(c1)C1(CCCC1)C(=O)N2 [Compound 28, 6-amino-2-(3,5-dimethyl-4-((2′-oxospiro[cyclopentane-1,3′-indolin]-5′-yl)oxy)phenyl)-1,2,4-triazine-3,5(2H,4H)-dione] | < 50 nM |
| O=C(Nc1cc(Cl)c(Oc2ccc3c(c2Cl)C2(CC2)C(=O)N3)c(Cl)c1)c1noc(=O)[nH]1 [Compound 29, N-(3,5-dichloro-4-((4′-chloro-2′-oxospiro[cyclopropane-1,3′-indolin]-5′-yl)oxy)phenyl)-5-oxo-4,5-dihydro-1,2,4-oxadiazole-3-carboxamide] | < 50 nM |
| Nc1nn(-c2cc(Cl)c(Oc3ccc4c(c3Cl)C3(CC3)C(=O)N4)c(Cl)c2)c(=O)[nH]c1=O [Compound 30, 6-amino-2-(3,5-dichloro-4-((4′-chloro-2′-oxospiro[cyclopropane-1,3′-indolin]-5′-yl)oxy)phenyl)-1,2,4-triazine-3,5(2H,4H)-dione] | < 50 nM |
| O=C1Nc2ccc(Oc3c(Cl)cc(-n4ncc(=O)[nH]c4=O)cc3Cl)c(Cl)c2C12CC2 [Compound 31, 2-(3,5-dichloro-4-((4′-chloro-2′-oxospiro[cyclopropane-1,3′-indolin]-5′-yl)oxy)phenyl)-1,2,4-triazine-3,5(2H,4H)-dione] | < 50 nM |
| CC1CC12C(=O)Nc1ccc(Oc3c(Cl)cc(-n4nc(N)c(=O)[nH]c4=O)cc3Cl)cc12 (centres unmarked) [Compound 33, 6-amino-2-(3,5-dichloro-4-((2-methyl-2′-oxospiro[cyclopropane-1,3′-indolin]-5′-yl)oxy)phenyl)-1,2,4-triazine-3,5(2H,4H)-dione] | < 50 nM |
| O=C(O)C(=O)Nc1cc(Cl)c(Oc2ccc3c(c2)C(F)(F)C(=O)N3)c(Cl)c1 [Compound 36, 2-((3,5-dichloro-4-((3,3-difluoro-2-oxoindolin-5-yl)oxy)phenyl)amino)-2-oxoacetic acid] | < 50 nM |
| Cc1c(Oc2c(Cl)cc(-c3nn(C)c(=O)[nH]c3=O)cc2Cl)ccc2c1C1(CC1)C(=O)N2 [Compound 37, 6-(3,5-dichloro-4-((4′-methyl-2′-oxospiro[cyclopropane-1,3′-indolin]-5′-yl)oxy)phenyl)-2-methyl-1,2,4-triazine-3,5(2H,4H)-dione] | < 50 nM |
| Cc1c(Oc2c(Cl)cc(-n3nc(N)c(=O)[nH]c3=O)cc2Cl)ccc2c1C1(CC1)C(=O)N2 [Compound 38, 6-amino-2-(3,5-dichloro-4-((4′-methyl-2′-oxospiro[cyclopropane-1,3′-indolin]-5′-yl)oxy)phenyl)-1,2,4-triazine-3,5(2H,4H)-dione] | < 50 nM |
| Cc1cc(NC(=O)c2noc(=O)[nH]2)cc(C)c1Oc1ccc2c(c1)C1(CC1)C(=O)N2 [Compound 39, N-(3,5-dimethyl-4-((2′-oxospiro[cyclopropane-1,3′-indolin]-5′-yl)oxy)phenyl)-5-oxo-4,5-dihydro-1,2,4-oxadiazole-3-carboxamide] | < 50 nM |

Reference: patent publication US11793815B2, “Oxindoles and methods of use thereof” (ALIGOS THERAPEUTICS, INC., priority 2020, dated 2023)
